For 16 compounds, IC50 and IC90 results are on record in ChEMBL document CHEMBL1132524, “Synthesis and evaluation of analogs of Efavirenz (SUSTIVA) as HIV-1 reverse transcriptase inhibitors” (Bioorg Med Chem Lett, 1999).

Assay [1] addresses Human immunodeficiency virus type 1 reverse transcriptase (Human immunodeficiency virus 1, UniProt Q72547). The assay can be described thus: Inhibitory activity against HIV-1 reverse transcriptase enzyme.
The subject of assay [2] is Human immunodeficiency virus 1.

`COc1ccc2c(c1)C(C#CC1CC1)(C(F)(F)F)OC(=O)N2` (stereo not given): the IC50 in assay [1] was determined as 131 nM. The compound also displayed an IC90 in assay [2] of 2 nM.

With `O=C1Nc2c(F)cc(Cl)cc2C(C#CC2CC2)(C(F)(F)F)O1` (stereo not given), the IC90 in assay [2] was determined as 7.19 nM. In assay [1], `O=C1Nc2ccc(F)c(F)c2C(C#CC2CC2)(C(F)(F)F)O1` (stereo not given) displayed an IC50 of 84 nM. This lies in the double-digit nanomolar range. In turn, `O=C1Nc2c(F)ccc(F)c2C(C#CC2CC2)(C(F)(F)F)O1` (stereo not given) yielded an IC50 in assay [1] of 796 nM. Further, it took 18 nM to reach the 90% level in assay [2] (IC90). In the same order, the values of `Cc1ccc2c(c1)C(C#CC1CC1)(C(F)(F)F)OC(=O)N2` (stereo not given) are 133 nM and 7.11 nM.

Regarding `O=C1Nc2ccc(F)cc2C(C#CC2CC2)(C(F)(F)F)O1` (stereo not given), it took 190 nM to reach half-maximal inhibition in assay [1] (IC50). The 90% effect level in assay [2] (IC90) was put at 7.35 nM. In the same order, the values of `CC(C)c1ccc2c(c1)C(C#CC1CC1)(C(F)(F)F)OC(=O)N2` (stereo not given) are 1960 nM and 27.8 nM. In the same order, the values of `O=C1Nc2ccc(-c3ccccc3)cc2C(C#CC2CC2)(C(F)(F)F)O1` (stereo not given) are more than 2000 nM and 249 nM. In the same order, the values of `O=C1Nc2c(Cl)cc(Cl)cc2C(C#CC2CC2)(C(F)(F)F)O1` (stereo not given) are more than 2000 nM and 28.6 nM. Compound `O=C1Nc2c(F)cc(F)c(F)c2C(C#CC2CC2)(C(F)(F)F)O1` (stereo not given) showed an IC50 in assay [1] of 800 nM. In addition, the IC90 in assay [2] came out at 14 nM. In the same order, the values of `CN(C)c1ccc2c(c1)C(C#CC1CC1)(C(F)(F)F)OC(=O)N2` (stereo not given) are 816 nM and 8.33 nM.

Regarding `O=C1Nc2ccc(OC(F)(F)F)cc2C(C#CC2CC2)(C(F)(F)F)O1` (stereo not given), 1250 nM corresponded to half-maximal inhibition in assay [1] (IC50). The compound further came in with a 90% effect concentration (IC90) in assay [2] of 18.9 nM.

In assay [1], `O=C1Nc2ccccc2C(C#CC2CC2)(C(F)(F)F)O1` (stereo not given) yielded an IC50 of 478 nM. Also, the IC90 in assay [2] is 10.3 nM. For `O=C1Nc2cc3ccccc3cc2C(C#CC2CC2)(C(F)(F)F)O1` (stereo not given) the same measures were 1910 nM and 26.9 nM. In the same order, the values of `O=C1Nc2c(cc(F)c(F)c2F)C(C#CC2CC2)(C(F)(F)F)O1` (stereo not given) are more than 2000 nM and 418 nM.

The compound `O=C1Nc2cc(F)c(F)c(F)c2C(C#CC2CC2)(C(F)(F)F)O1` (stereo not given) came in with an IC50 in assay [1] of 442 nM. The same compound gave an IC90 in assay [2] of 19.6 nM.
